Laboratory results reported in ChEMBL document CHEMBL3639308, “Substituted naphthyridines and their use as medicaments” (2015).

Biological target: Tyrosine-protein kinase SYK (Homo sapiens, UniProt P43405)

**Q.** How did the IC50 turn out when COc1cc(-c2cc3ncccc3c(O[C@H](C)[C@H]3CNC(=O)C3)n2)ccc1OC(F)(F)F was run?
**A.** 1.9 nM
